Measurements: patent publication US20220105150A1, “AMPHIPATHIC ALPHA-HELICAL ANTIMICROBIAL PEPTIDES TREAT INFECTIONS BY GRAM-NEGATIVE PATHOGENS” (priority 2019, published 2022)
≈ marks a conversion by molar mass, not a printed value. Square brackets hold non-standard residues; d marks the D form. Peptide text beside a SMILES is read from it. Dap = NC[C@H](N)C(=O)O

What was measured:
[1] = tested on: A. baumannii strains from JMI Laboratories; conditions: 20 A. baumannii isolates from JMI Laboratories; cited from earlier work
[2] = tested on: Acinetobacter baumannii isolates resistant to classical antibiotics; assay type: cell-based; conditions: isolates resistant to classical antibiotics
Description: Thus, shortening the number of carbon atoms between the side-chain amino group and the α-carbon atom from four (Lys) to one (diaminopropionic acid) had very little effect on antibacterial activity (Table 2). We also determined the antibacterial activity of our five AMPs against 20 additional Acinetobacter baumannii isolates from four continents, 12 different countries and 17 different cities that were resistant to 18 different antibiotics. […] Thus, it is very clear that changing the type of positively-charged residue on the polar face of these AMPs had very little effect on the antibacterial activities.

[3] = tested on: Acinetobacter baumannii strains resistant to Polymyxin B and Colistin; conditions: strains resistant to Polymyxin B and Colistin, 24 h
Description: The coupling procedure used 5 equivalents of Fmoc-D-amino acid or Fmoc-L-amino acid and HCTU (O-(1H-6-chlorobenzotriazole-1-yl)-1,1,3,3-tetramethyluronium hexafluorophosphate) and 6-Cl-HOBt (1-hydroxy-6-chloro-benztriazole) at 4.5 equivalents in DMF (Fisher Scientific, Denver, Colo.) and N-diisopropylethylamine (DIPEA) 10 equivalents (Oakwood Products, Inc., Estill, S.C.) in N-methyl-2-pyrrolidinone (NMP) (Fisher Scientific, Denver, Colo.) with the first and second couplings at room temperature for 30 min each. The deprotection procedure (removal of Fmoc protecting group) was carried out by treatment of the resin with 0.1 M HOBt (1-hydroxybenzotriazole) in DMF with 20% piperidine for 30 min. […] The resin was removed by filtration and peptide was precipitated with ice-cooled ethyl ether on ice for 15 min. Ether was decanted, the peptide was washed twice with ether and redissolved in acetonitrile/water (1:1, with 0.2% TFA) and the solution lyophilized to obtain the crude peptide. • Analytical and Preparative Purification by Reversed-Phase Chromatography: Analytical RP-HPLC: Column, Luna C18 (2), 250×4.6 mm I.D., 5 μm particle size, 100 Å pore size from Phenomenex (Torrance, Calif.). Run conditions: linear AB gradient (1% acetonitrile/min, starting from 2% acetonitrile) at a flow-rate of 1 ml/min, where eluent A is 0.2% aq. TFA and eluent B is 0.18% TFA in acetonitrile; temperature, 30° C. Preparative RP-HPLC: Peptides were dissolved in 0.2% aq. TFA containing 2% acetonitrile to a final concentration of 10 mg/ml. Following filtration through a 0.45 μm Millipore filter and subsequently through a 0.22 μm filter, the peptide solutions were loaded onto the column via multiple 20-ml injections into a 20-ml injection loop at a flow-rate of 10 ml/min. Column, Luna C18 (2), 250×30 mm I.D., 5 um particle size, 100 Å pore size from Phenomenex. Run conditions: 2% acetonitrile/min gradient up to an acetonitrile concentration 10% below that required to elute the peptide during analytical RP-HPLC, then shallow gradient elution (0.05% or 0.1% acetonitrile/min depending on the complexity of impurities near the product of interest on the analytical run of the crude peptide) at a flow-rate of 10 ml/min (same eluents as shown above for analytical RP-HPLC); at room temperature. • Temperature Profiling of Peptides on Reversed-phase HPLC to Measure Dimerization and Oligomerization: Purified peptides were analyzed on an Agilent 1200 series liquid chromatograph for temperature profiling using a Zorbax 300 SB-C8 column (150 mm×2.1 mm I.D.; 5 μm particle size, 300 Å pore size) from Agilent Technologies. […] Temperature profiling was carried out on peptide mixtures run at each temperature in 2° C. increments from 5° C. to 41° C. and 10° C. increments from 5° C. to 75° C. Twenty minutes was allowed between runs for temperature equilibration. • Characterization of Helical Structure: The mean residue molar ellipticities of peptides were determined by circular dichroism (CD) spectroscopy, using a Jasco J-815 spectropolarimeter (Jasco Inc. Easton, Md., USA) at 5° C. under KP buffer (50 mM NaH2PO4/Na2HPO4/100 mM KCl, pH 7.0) as well as in the presence of an α-helix inducing solvent, 2,2,2-trifluoroethanol, TFE, (50 mM NaH2PO4/Na2HPO4/100 mM KCl, pH 7.0 buffer/50% TFE). A 10-fold dilution of an approximately 500 μM stock solution of the peptide analogs was loaded into a 0.1 cm quartz cell and its ellipticity scanned from 195 to 250 nm.

Structure (SMILES) | number of resistant isolates out of the number of isolates screened [1] | MIC MB9941 [3] | MIC MB9949 [3] | MIC MB9951 [3] | MIC MB9952 [3] | MIC MB9953 [3] | MIC MB9955 [3] | MIC MB9963 [3] | other results
NCC[C@H](O)C(=O)N[C@@H]1C[C@H](N)[C@@H](O[C@H]2O[C@H](CN)[C@@H](O)[C@H](O)[C@H]2O)[C@H](O)[C@H]1O[C@H]1O[C@H](CO)[C@@H](O)[C@H](N)[C@H]1O [Amikacin] | 17/20 |  |  |  |  |  |  |  | 
C[C@H]1[C@H](NC(=O)/C(=N\OC(C)(C)C(=O)O)c2csc(N)n2)C(=O)N1S(=O)(=O)O [Aztreonam] | 20/20 |  |  |  |  |  |  |  | 
CO/N=C(\C(=O)N[C@@H]1C(=O)N2C(C(=O)[O-])=C(C[N+]3(C)CCCC3)CS[C@H]12)c1csc(N)n1 [Cefepime] | 18/20 |  |  |  |  |  |  |  | 
CC(C)(O/N=C(\C(=O)N[C@@H]1C(=O)N2C(C(=O)[O-])=C(C[n+]3ccccc3)CS[C@H]12)c1csc(N)n1)C(=O)O [Ceftazidime] | 17/20 |  |  |  |  |  |  |  | 
O=C(O)c1cn(C2CC2)c2cc(N3CCNCC3)c(F)cc2c1=O [Ciprofloxacin] | 15/20 |  |  |  |  |  |  |  | 
CC(=O)N[C@H](CCCCN)C(=O)N[C@H](CC(C)C)C(=O)N[C@H](CCCCN)C(=O)N[C@H](CO)C(=O)N[C@H](CC(C)C)C(=O)N[C@H](CC(C)C)C(=O)N[C@H](CCCCN)C(=O)N[C@@H](C(=O)N[C@H](CC(C)C)C(=O)N[C@H](CO)C(=O)N[C@H](CCCCN)C(=O)N[C@H](C)C(=O)N[C@H](CCCCN)C(=O)N[C@H](C)C(=O)N[C@H](C)C(=O)N[C@H](CCCCN)C(=O)N[C@H](CC(C)C)C(=O)N[C@H](CCCCN)C(=O)N[C@@H](C(=O)N[C@H](CC(C)C)C(=O)N[C@H](CC(C)C)C(=O)N[C@H](CCCCN)C(=O)N[C@H](C)C(=O)N[C@H](CC(C)C)C(=O)N[C@H](CO)C(=O)N[C@H](CCCCN)C(N)=O)[C@H](C)O)[C@H](C)O [D84(Lys^1-6Lys-1), Ac-KL(Lys)SLL(Lys)TLS(Lys)AKAAKL(Lys)TLL(Lys)ALS(Lys)-amide] |  | 0.3 µM (≈ 0.86 µg/mL) | 0.7 µM (≈ 2.01 µg/mL) | 0.3 µM (≈ 0.86 µg/mL) | 0.7 µM (≈ 2.01 µg/mL) | 0.7 µM (≈ 2.01 µg/mL) | 0.3 µM (≈ 0.86 µg/mL) | 0.7 µM (≈ 2.01 µg/mL) | MIC 101887 [2]: 0.7 µM (≈ 2.01 µg/mL); MIC 961997 [2]: 1.4 µM (≈ 4.01 µg/mL); MIC 963618 [2]: 0.7 µM (≈ 2.01 µg/mL); MIC 964304 [2]: 1.4 µM (≈ 4.01 µg/mL); MIC 977751 [2]: 0.3 µM (≈ 0.86 µg/mL); MIC 981653 [2]: 0.7 µM (≈ 2.01 µg/mL); MIC 1002956 [2]: 0.3 µM (≈ 0.86 µg/mL); MIC 1007660 [2]: 0.3 µM (≈ 0.86 µg/mL); MIC 1010282 [2]: 0.7 µM (≈ 2.01 µg/mL); MIC 1035166 [2]: 0.7 µM (≈ 2.01 µg/mL)
CC(=O)N[C@H](CCCCN)C(=O)N[C@H](CC(C)C)C(=O)N[C@H](CCCCN)C(=O)N[C@H](CO)C(=O)N[C@H](CC(C)C)C(=O)N[C@H](CC(C)C)C(=O)N[C@H](CCCCN)C(=O)N[C@@H](C(=O)N[C@H](CC(C)C)C(=O)N[C@H](CO)C(=O)N[C@H](CCCCN)C(=O)N[C@H](C)C(=O)N[C@H](CCCCN)C(=O)N[C@H](C)C(=O)N[C@H](C)C(=O)N[C@H](CCCCN)C(=O)N[C@H](CC(C)C)C(=O)N[C@H](CCCCN)C(=O)N[C@@H](C(=O)N[C@H](CC(C)C)C(=O)N[C@H](CC(C)C)C(=O)N[C@H](CCCCN)C(=O)N[C@H](C)C(=O)N[C@H](CC(C)C)C(=O)N[C@H](CO)C(=O)N[C@H](CO)C(N)=O)[C@H](C)O)[C@H](C)O [D101(Lys^1Ser^26-5Lys-1), Ac-KL(Lys)SLL(Lys)TLS(Lys)AKAAKL(Lys)TLL(Lys)ALS(Ser)-amide] |  | 0.7 µM (≈ 1.98 µg/mL) | 0.7 µM (≈ 1.98 µg/mL) | 0.7 µM (≈ 1.98 µg/mL) | 0.7 µM (≈ 1.98 µg/mL) | 1.5 µM (≈ 4.24 µg/mL) | 0.7 µM (≈ 1.98 µg/mL) | 0.7 µM (≈ 1.98 µg/mL) | MIC 101887 [2]: 1.4 µM (≈ 3.95 µg/mL); MIC 961997 [2]: 1.4 µM (≈ 3.95 µg/mL); MIC 963618 [2]: 0.7 µM (≈ 1.98 µg/mL); MIC 964304 [2]: 1.4 µM (≈ 3.95 µg/mL); MIC 977751 [2]: 0.7 µM (≈ 1.98 µg/mL); MIC 981653 [2]: 0.7 µM (≈ 1.98 µg/mL); MIC 1002956 [2]: 0.7 µM (≈ 1.98 µg/mL); MIC 1007660 [2]: 0.7 µM (≈ 1.98 µg/mL); MIC 1010282 [2]: 1.4 µM (≈ 3.95 µg/mL); MIC 1035166 [2]: 1.4 µM (≈ 3.95 µg/mL)
CC(=O)N[C@H](CCCCN)C(=O)N[C@H](CC(C)C)C(=O)N[C@@H](CN)C(=O)N[C@H](CO)C(=O)N[C@H](CC(C)C)C(=O)N[C@H](CC(C)C)C(=O)N[C@@H](CN)C(=O)N[C@@H](C(=O)N[C@H](CC(C)C)C(=O)N[C@H](CO)C(=O)N[C@H](C)C(=O)N[C@H](C)C(=O)N[C@H](CCCCN)C(=O)N[C@@H](CN)C(=O)N[C@@H](CN)C(=O)N[C@H](CCCCN)C(=O)N[C@H](CC(C)C)C(=O)N[C@H](C)C(=O)N[C@@H](C(=O)N[C@H](CC(C)C)C(=O)N[C@H](CC(C)C)C(=O)N[C@@H](CN)C(=O)N[C@H](C)C(=O)N[C@H](CC(C)C)C(=O)N[C@H](CO)C(=O)N[C@@H](CN)C(N)=O)[C@H](C)O)[C@H](C)O [D106(Lys^1-6 Dap-2), Ac-KL(L-Dap)SLL(L-Dap)TLSAAK(L-Dap)(L-Dap)KLATLL(L-Dap)ALS(L-Dap)-amide] (Ac-[dK][dL][Dap][dS][dL][dL][Dap][dT][dL][dS][dA][dA][dK][Dap][Dap][dK][dL][dA][dT][dL][dL][Dap][dA][dL][dS][Dap]-NH2) |  | 0.8 µM (≈ 2.09 µg/mL) | 0.8 µM (≈ 2.09 µg/mL) | 1.5 µM (≈ 3.92 µg/mL) | 0.8 µM (≈ 2.09 µg/mL) | 0.8 µM (≈ 2.09 µg/mL) | 0.4 µM (≈ 1.05 µg/mL) | 0.8 µM (≈ 2.09 µg/mL) | 
